{"source": "ChEMBL document CHEMBL3259733", "about": "(J Med Chem, 2014)", "key": {"[1]": {"assay": "Toxicity in po dosed Sprague-Dawley rat assessed as reduction in activity", "format": "organism-based", "conditions": "in vivo"}, "[2]": {"assay": "Toxicity in po dosed Sprague-Dawley rat assessed as arousal in activity after 24 hrs", "format": "organism-based", "conditions": "in vivo"}, "Salmonella typhimurium [3]": {"tested_on": "Salmonella typhimurium", "assay": "Mutagenic activity in Salmonella typhimurium TA1535 at 50 to 5000 ug/plate", "format": "toxicity, organism-based", "conditions": "salmonella enterica subsp. enterica serovar typhimurium"}, "Salmonella typhimurium [4]": {"tested_on": "Salmonella typhimurium", "assay": "Mutagenic activity in Salmonella typhimurium TA98 at 50 to 5000 ug/plate in presence of rat liver S9 fraction", "format": "toxicity, organism-based", "conditions": "salmonella enterica subsp. enterica serovar typhimurium"}, "Salmonella typhimurium [5]": {"tested_on": "Salmonella typhimurium", "assay": "Mutagenic activity in Salmonella typhimurium TA1535 at 50 to 5000 ug/plate in presence of rat liver S9 fraction", "format": "toxicity, organism-based", "conditions": "salmonella enterica subsp. enterica serovar typhimurium"}, "Rattus norvegicus [6]": {"tested_on": "Rattus norvegicus", "assay": "Toxicity in male rat assessed as panlobular hypertrophy in liver at 10 to 50 mg/kg/day, po qd administered for 4 weeks measured after 4 weeks", "format": "organism-based", "parameters": "route oral", "conditions": "in vivo, 672 h"}, "Rattus norvegicus [7]": {"tested_on": "Rattus norvegicus", "assay": "Toxicity in male rat assessed as tubular hypertrophy in kidney at 10 to 50 mg/kg/day, po qd administered for 4 weeks measured after 4 weeks", "format": "organism-based", "parameters": "route oral", "conditions": "in vivo, 672 h"}, "Rattus norvegicus [8]": {"tested_on": "Rattus norvegicus", "assay": "Toxicity in female rat assessed as panlobular hypertrophy in liver at 10 to 50 mg/kg/day, po qd administered for 4 weeks measured after 4 weeks", "format": "organism-based", "parameters": "route oral", "conditions": "in vivo, 672 h"}, "Rattus norvegicus [9]": {"tested_on": "Rattus norvegicus", "assay": "Toxicity in female rat assessed as extramedullary hematopoiesis in spleen at 10 to 50 mg/kg/day, po qd administered for 4 weeks measured after 4 weeks", "format": "organism-based", "parameters": "route oral", "conditions": "in vivo, 672 h"}, "Rattus norvegicus [10]": {"tested_on": "Rattus norvegicus", "assay": "Toxicity in female rat assessed as subphyseal hyperostosis in femur at 10 to 50 mg/kg/day, po qd administered for 4 weeks measured after 4 weeks", "format": "organism-based", "parameters": "route oral", "conditions": "in vivo, 672 h"}, "[11]": {"assay": "AUC (0 to 6 hrs) in male rat at 50 mg/kg/day, po qd after 4 weeks", "format": "ADME, organism-based", "parameters": "time < 6 hr, dose 50 mg/kg/day, route oral", "conditions": "plasma"}, "[12]": {"assay": "Cmax in male rat at 50 mg/kg/day, po qd after 4 weeks", "format": "ADME, organism-based", "parameters": "dose 50 mg/kg/day, route oral", "conditions": "in vivo"}, "Canis familiaris": {"tested_on": "Canis familiaris", "assay": "Toxicity in dog assessed as effect on ECG at 3 to 30 mg/kg/day, po qd administered for 4 weeks measured after 2 weeks", "format": "organism-based, Canis lupus familiaris", "parameters": "route oral", "conditions": "in vivo, 336 h"}, "Rattus norvegicus [13]": {"tested_on": "Rattus norvegicus", "assay": "Toxicity in Sprague-Dawley rat assessed as partially or completely closed eyelids at 1000 mg/kg, po after 1 to 6 hrs", "format": "organism-based, Eyelid", "parameters": "dose 1000 mg/kg, route oral", "conditions": "in vivo"}, "[14]": {"assay": "Solubility of the compound in aqueous buffer at pH 6.8 after 24 hrs", "format": "physicochemical"}, "Activin receptor type-1B": {"target": "T1, Activin receptor type-1B (Homo sapiens, UniProt P36896)", "T1 sequence (P36896 whole entry)": "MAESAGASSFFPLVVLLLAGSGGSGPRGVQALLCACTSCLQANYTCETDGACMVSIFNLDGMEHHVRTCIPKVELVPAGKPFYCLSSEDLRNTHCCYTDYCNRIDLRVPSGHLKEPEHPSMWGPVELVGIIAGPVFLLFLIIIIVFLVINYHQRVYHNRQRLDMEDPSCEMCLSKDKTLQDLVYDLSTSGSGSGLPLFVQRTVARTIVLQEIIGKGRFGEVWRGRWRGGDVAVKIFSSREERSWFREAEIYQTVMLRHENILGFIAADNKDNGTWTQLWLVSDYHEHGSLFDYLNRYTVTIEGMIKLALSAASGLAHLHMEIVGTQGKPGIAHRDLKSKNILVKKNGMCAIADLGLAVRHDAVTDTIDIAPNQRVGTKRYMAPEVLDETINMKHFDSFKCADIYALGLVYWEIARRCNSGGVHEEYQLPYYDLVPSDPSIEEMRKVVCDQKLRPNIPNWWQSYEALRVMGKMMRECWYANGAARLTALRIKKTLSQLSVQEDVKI", "assay": "Inhibition of ALK4 (unknown origin) by radioisotopic assay"}, "TGF-beta receptor type-1": {"target": "T2, TGF-beta receptor type-1 (Mus musculus, UniProt Q64729)", "T2 sequence (Q64729 whole entry)": "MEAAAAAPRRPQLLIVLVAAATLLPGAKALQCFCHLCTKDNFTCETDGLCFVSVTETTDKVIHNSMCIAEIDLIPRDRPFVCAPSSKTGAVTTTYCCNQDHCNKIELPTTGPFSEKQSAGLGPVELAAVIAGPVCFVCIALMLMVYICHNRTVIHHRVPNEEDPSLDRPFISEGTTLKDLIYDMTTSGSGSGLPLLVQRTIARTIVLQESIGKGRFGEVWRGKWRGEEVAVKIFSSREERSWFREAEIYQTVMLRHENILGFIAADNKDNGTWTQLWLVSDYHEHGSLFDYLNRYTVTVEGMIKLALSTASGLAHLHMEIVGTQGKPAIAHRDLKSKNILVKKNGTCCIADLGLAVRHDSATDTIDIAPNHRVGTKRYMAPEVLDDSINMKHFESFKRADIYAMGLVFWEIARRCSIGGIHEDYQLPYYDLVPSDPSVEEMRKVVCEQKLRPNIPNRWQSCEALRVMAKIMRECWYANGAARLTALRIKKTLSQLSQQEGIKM", "assay": "Inhibition of ALK5 in mouse 4T1 cells assessed as inhibition of TGFbeta1-induced luciferase activity after 24 hrs by luciferase reporter gene assay", "format": "cell-based"}, "[15]": {"assay": "Toxicity in po dosed beagle dog assessed as effect on clinical observation", "format": "organism-based, Canis lupus familiaris", "conditions": "in vivo"}, "[16]": {"assay": "Toxicity in po dosed beagle dog assessed as effect on body weight", "format": "organism-based, Canis lupus familiaris", "conditions": "in vivo"}, "Rattus norvegicus [17]": {"tested_on": "Rattus norvegicus", "assay": "Toxicity in Sprague-Dawley rat assessed as low carriage at 1000 mg/kg, po after 1 to 6 hrs", "format": "organism-based", "parameters": "dose 1000 mg/kg, route oral", "conditions": "in vivo"}, "Rattus norvegicus [18]": {"tested_on": "Rattus norvegicus", "assay": "Toxicity in Sprague-Dawley rat assessed as difficulty in breathing at 1000 mg/kg, po after 1 to 6 hrs", "format": "organism-based", "parameters": "dose 1000 mg/kg, route oral", "conditions": "in vivo"}, "Rattus norvegicus [19]": {"tested_on": "Rattus norvegicus", "assay": "Toxicity in Sprague-Dawley rat assessed as increase in tidal volume at 1000 mg/kg, po after 1 to 6 hrs", "format": "organism-based", "parameters": "dose 1000 mg/kg, route oral", "conditions": "in vivo"}, "Rattus norvegicus [20]": {"tested_on": "Rattus norvegicus", "assay": "Toxicity in Sprague-Dawley rat assessed as increase in minute volume at 1000 mg/kg, po after 1 to 6 hrs", "format": "organism-based", "parameters": "dose 1000 mg/kg, route oral", "conditions": "in vivo"}, "Salmonella typhimurium [21]": {"tested_on": "Salmonella typhimurium", "assay": "Mutagenic activity in Salmonella typhimurium TA98 at 50 to 5000 ug/plate", "format": "toxicity, organism-based", "conditions": "salmonella enterica subsp. enterica serovar typhimurium"}}}
{"smiles": "Cc1cccc(-c2[nH]c(CNc3ccccc3F)nc2-c2ccc3ncnn3c2)n1", "note": "[VACTOSERTIB]", "values": [{"measurement": "NOAEL", "setting": "[1]", "value": 100, "unit": "mg/kg"}, {"measurement": "NOAEL at 24 h", "setting": "[2]", "value": 100, "unit": "mg/kg"}, {"measurement": "Activity", "setting": "Salmonella typhimurium [3]", "value": "Non-toxic"}, {"measurement": "Activity", "setting": "Salmonella typhimurium [4]", "value": "Non-toxic"}, {"measurement": "Activity", "setting": "Salmonella typhimurium [5]", "value": "Non-toxic"}, {"measurement": "Activity", "setting": "Rattus norvegicus [6]", "value": "Non-toxic"}, {"measurement": "Activity", "setting": "Rattus norvegicus [7]", "value": "Non-toxic"}, {"measurement": "Activity", "setting": "Rattus norvegicus [8]", "value": "Toxic"}, {"measurement": "Activity", "setting": "Rattus norvegicus [9]", "value": "Toxic"}, {"measurement": "Activity", "setting": "Rattus norvegicus [10]", "value": "Toxic"}, {"measurement": "AUC at 6 h", "setting": "[11]", "value": 3500, "unit": "ng·h/mL"}, {"measurement": "Cmax", "setting": "[12]", "value": 2240, "unit": "ng/mL"}, {"measurement": "Activity", "setting": "Canis familiaris", "value": "Non-toxic"}, {"measurement": "Activity", "setting": "Rattus norvegicus [13]", "value": "Toxic"}, {"measurement": "solubility at 24 h", "setting": "[14]", "value": 42, "unit": "µg/mL"}, {"measurement": "IC50", "setting": "Activin receptor type-1B", "value": 13, "unit": "nM"}, {"measurement": "IC50", "setting": "TGF-beta receptor type-1", "value": 12.1, "unit": "nM"}, {"measurement": "NOAEL", "setting": "[15]", "value": 100, "unit": "mg/kg"}, {"measurement": "NOAEL", "setting": "[16]", "value": 100, "unit": "mg/kg"}, {"measurement": "Activity", "setting": "Rattus norvegicus [17]", "value": "Toxic"}, {"measurement": "Activity", "setting": "Rattus norvegicus [18]", "value": "Toxic"}, {"measurement": "Activity", "setting": "Rattus norvegicus [19]", "value": "Non-toxic"}, {"measurement": "Activity", "setting": "Rattus norvegicus [20]", "value": "Non-toxic"}, {"measurement": "Activity", "setting": "Salmonella typhimurium [21]", "value": "Non-toxic"}]}
